# From US20120129939A1, “POLYAMINE INHIBITORS FOR THE TREATMENT AND PREVENTION OF PARKINSON'S DISEASE” (priority 2009, published 2012)
# Key:
# [1] = test system: Murine L1210 leukemia cells; assay: Polyamine determinations (HPLC) in cultured cells treated with DFMO or DFMO analogs; format: cell-based; set-up: PUT (amount): unit not given beside the values; SPD (amount) / SPM (amount) / [PUT] (concentration) / [SPD] (concentration) / [SPM] (concentration) / 48 hr avg put / 48 hr avg spd: unit not given here; conditions: for 24 hr avg put / 24 hr avg spd / 24 hr avg spm / 48 hr avg put / 48 hr avg spd / 48 hr avg spm: average of 10, 50, 100 uM treatments; for 24 hr avg put / 24 hr avg spd / 24 hr avg spm: 24 hour treatment
# Procedure: Cell Growth. […] After 24 or 48 h, cells were removed from tubes for counting and viability determinations. Cell number was determined by electronic particle counting (Model 2F Coulter Counter; Coulter Electron-ics, Hialeah, Fla.) and confirmed periodically with hemocytometer measurements. […] The percentage of control growth was determined as follows. Cell samples were washed twice in cold PBS, and an aliquot of […] was removed for polyamine determination. The cells were pelleted, and the PBS supernatant was carefully removed with a cotton swab. […] The supernatant was frozen at -20° C. until analysis by HPLC. […] The column temperature was maintained at 65° C. with water from a circulating bath. The column was eluted at a flow rate of 16 ml/h with an initial column pressure of 500 psi which decreased with increasing ionic strength of the elution buffer. […] The column was reequilibrated for 10 min with Buffer 1 prior to loading the next sample. The column eluate was derivatized with 0.05% o-phthalaldehyde (Durrum Chemical Corp.) in 0.4M borate buffer (pH 10.4) containing […] and 0.09% Brij 35. The o-phthalaldehyde reagent flow rate was 8 ml/h. The derivatized eluate was analyzed for polyamine content by passing it through the flow cell of a […] (Fluoro-Monitor; American Instrument Co., Silver Spring, Md.) with a fixed excitation wavelength of 360 nm and emission wavelength of […]. Data were analyzed using a Hewlett Packard Model […] automation system.
# [2] = target: α-synuclein (Homo sapiens, UniProt P37840); conditions: in vitro system, exogenously added (Antony 2003); cited from earlier work
# [3] = 10 uM treatment, 24 hr treatment
# [4] = 10 uM treatment, 48 hour treatment
# [5] = 50 uM treatment, 24 hr treatment
# [6] = 50 uM treatment, 48 hour treatment
# [7] = 100 uM treatment, 24 hr treatment
# [8] = 100 uM treatment, 48 hour treatment
smiles,measurement,setting,value
CCOC(=O)C(N)(CCCN)C(F)F (stereo not shown) [DFMO Analog 1],PUT (amount),[1]; [3],14507
same,SPD (amount),[1]; [3],1202403
same,SPM (amount),[1]; [3],149654
same,[PUT] (concentration),[1]; [3],0.007061
same,[SPD] (concentration),[1]; [3],0.2484
same,[SPM] (concentration),[1]; [3],0.4836
same,PUT (amount),[1]; [4],43116
same,SPD (amount),[1]; [4],1887299
same,SPM (amount),[1]; [4],2659801
same,[PUT] (concentration),[1]; [4],0.02099
same,[SPD] (concentration),[1]; [4],2.316
same,[SPM] (concentration),[1]; [4],8.595
same,SPD (amount),[1]; [5],163914
same,SPM (amount),[1]; [5],168544
same,[PUT] (concentration),[1]; [5],0
same,[SPD] (concentration),[1]; [5],0.2012
same,[SPM] (concentration),[1]; [5],0.5447
same,PUT (amount),[1]; [6],23355
same,SPD (amount),[1]; [6],1774662
same,SPM (amount),[1]; [6],4106905
same,[PUT] (concentration),[1]; [6],0.01137
same,[SPD] (concentration),[1]; [6],2.178
same,[SPM] (concentration),[1]; [6],13.27
same,SPD (amount),[1]; [7],377626
same,SPM (amount),[1]; [7],500166
same,[SPD] (concentration),[1]; [7],0.4635
same,[SPM] (concentration),[1]; [7],1.616
same,SPD (amount),[1]; [8],332304
same,SPM (amount),[1]; [8],1568383
same,[PUT] (concentration),[1]; [8],0
same,[SPD] (concentration),[1]; [8],0.4078
same,[SPM] (concentration),[1]; [8],5.068
same,24 hr avg put,[1],0.002354
same,24 hr avg spd,[1],0.3043
same,24 hr avg spm,[1],0.8815
same,48 hr avg put,[1]; 48 hour treatment,0.01078
same,48 hr avg spd,[1]; 48 hour treatment,1.634
same,48 hr avg spm,[1]; 48 hour treatment,8.978
CCOC(=O)C(CCCNC(=O)OC)(NC(=O)OC)C(F)F (stereo not shown) [DFMO Analog 2],PUT (amount),[1]; [3],56963
same,SPD (amount),[1]; [3],651020
same,SPM (amount),[1]; [3],481606
same,[PUT] (concentration),[1]; [3],0.02773
same,[SPD] (concentration),[1]; [3],0.799
same,[SPM] (concentration),[1]; [3],1.556
same,PUT (amount),[1]; [4],124533
same,SPD (amount),[1]; [4],3898235
same,SPM (amount),[1]; [4],4032041
same,[PUT] (concentration),[1]; [4],0.06062
same,[SPD] (concentration),[1]; [4],4.784
same,[SPM] (concentration),[1]; [4],13.03
same,PUT (amount),[1]; [5],379546
same,SPD (amount),[1]; [5],3615812
same,SPM (amount),[1]; [5],2470785
same,[PUT] (concentration),[1]; [5],0.1847
same,[SPD] (concentration),[1]; [5],4.438
same,[SPM] (concentration),[1]; [5],7.985
same,PUT (amount),[1]; [6],34544
same,SPD (amount),[1]; [6],848798
same,SPM (amount),[1]; [6],693740
same,[PUT] (concentration),[1]; [6],0.01681
same,[SPD] (concentration),[1]; [6],1.042
same,[SPM] (concentration),[1]; [6],2.242
same,PUT (amount),[1]; [7],27933
same,SPD (amount),[1]; [7],323941
same,SPM (amount),[1]; [7],212917
same,[PUT] (concentration),[1]; [7],0.0136
same,[SPD] (concentration),[1]; [7],0.3976
same,[SPM] (concentration),[1]; [7],0.6881
same,PUT (amount),[1]; [8],7198
same,SPD (amount),[1]; [8],231781
same,SPM (amount),[1]; [8],236426
same,[PUT] (concentration),[1]; [8],0.003504
same,[SPD] (concentration),[1]; [8],0.2845
same,[SPM] (concentration),[1]; [8],0.764
same,24 hr avg put,[1],0.07535
same,24 hr avg spd,[1],1.878
same,24 hr avg spm,[1],3.41
same,48 hr avg put,[1]; 48 hour treatment,0.02698
same,48 hr avg spd,[1]; 48 hour treatment,2.037
same,48 hr avg spm,[1]; 48 hour treatment,5.345
"NCCC[C@](N)(C(=O)O)C(F)F [DFMO, α-difluoromethylornithine, reference compound]",PUT (amount),[1]; [3],63429
same,SPD (amount),[1]; [3],2369255
same,SPM (amount),[1]; [3],2363841
same,[PUT] (concentration),[1]; [3],0.03087
same,[SPD] (concentration),[1]; [3],2.908
same,[SPM] (concentration),[1]; [3],7.639
same,SPD (amount),[1]; [4],254356
same,SPM (amount),[1]; [4],373610
same,[PUT] (concentration),[1]; [4],0
same,[SPD] (concentration),[1]; [4],0.3122
same,[SPM] (concentration),[1]; [4],1.207
same,SPD (amount),[1]; [5],542711
same,SPM (amount),[1]; [5],1315606
same,[PUT] (concentration),[1]; [5],0
same,[SPD] (concentration),[1]; [5],0.6661
same,[SPM] (concentration),[1]; [5],4.251
same,SPD (amount),[1]; [6],44007
same,SPM (amount),[1]; [6],482723
same,[PUT] (concentration),[1]; [6],0
same,[SPD] (concentration),[1]; [6],0.05401
same,[SPM] (concentration),[1]; [6],1.56
same,SPD (amount),[1]; [7],42842
same,SPM (amount),[1]; [7],98016
same,[PUT] (concentration),[1]; [7],0
same,[SPD] (concentration),[1]; [7],0.05258
same,[SPM] (concentration),[1]; [7],0.3167
same,SPD (amount),[1]; [8],220260
same,SPM (amount),[1]; [8],7071485
same,[PUT] (concentration),[1]; [8],0
same,[SPD] (concentration),[1]; [8],0.2703
same,[SPM] (concentration),[1]; [8],22.85
same,24 hr avg put,[1],0.01029
same,24 hr avg spd,[1],1.209
same,24 hr avg spm,[1],4.069
same,48 hr avg put,[1]; 48 hour treatment,0
same,48 hr avg spd,[1]; 48 hour treatment,0.2122
same,48 hr avg spm,[1]; 48 hour treatment,8.54
NCCCCNCCCN [spermidine],aggregation of α-synuclein,[2],accelerate
